{"source": "patent US8822533B1", "about": "“Methods and compositions for repelling and/or killing insects” (The United States of America, as represented by the …, priority 2011, dated 2014)", "key": {"[1]": {"tested_on": "Mosquitoes, either Aedes aegypti (Liverpool) or Anopheles stephensi Liston", "assay": "K&D module in vitro bioassay: biting protection, knockdown and mortality", "format": "in vivo", "method": "In vitro bioassays were conducted as described by Klun et. al. (Klun, J. A., et al., J. Med. Entomol., 40: 293-299 (2005)). Each test replicate consisted of 3 treatments: a control (EtOH); a standard (Deet, 4.54 nmol/μl); and an experimental compound (pyrethroid analogs, 4.54 nmol/ul). The 3 treatments were randomly assigned to consecutive cells in 2, 6-cell reservoirs connected in series to a single water-bath pump; thus, 4 replicates could be tested/run. Tests were performed in an Air Science USA hood, with an air movement velocity of approx. 110-120 ft./min., temperature of 25-27° C., and RH of 15-25%. A 6-celled reservoir was connected to and heated by a constant-temperature (38° C.) water circulator (Lauda E100, Wobser GMGH and Co., Konigshofell, Germany).\nPrior to each test, the upper surface of each reservoir was coated with a thin layer of high-vacuum silicone grease (Dow Corning Corp., Midland, Mich.), and the cells then filled (approx. 6 ml. capacity) or topped-off with either: (1) expired human red blood cells suspended in citrate-phosphate-dextrose-adenine (CPDA) solution, not more than 1 month past expiration date, and to which 110 mg ATP/35 ml. blood-CPDA had been added on the day of testing; or (2) CPDA+ATP×^−3, usually made up or diluted to 10^−3 ATP on the day of testing. The filled cells were then covered with an Edicol collagen membrane (Devro, Sandy Run, S.C.) strip, and then with a just-treated (110 μl of 4.54 nmol/μl treatment or control solution) organdy cloth (G Street Fabrics, Rockville, Md.) strip. Mosquitoes used in tests were either Aedes aegypti_(Liverpool) or Anopheles stephensi_Liston. K&D modules containing 5 adult females/cell were placed over a Teflon separator atop each reservoir; the sliding floors opened allowing access to the treated organdy cloth and membrane-covered cell; and the number of mosquitoes biting (proboscis inserted through the cloth) and/or observed to be engorged within each cell at the end of a 3-5 min. exposure period was recorded. Mosquitoes were used only once in a test, and then frozen and discarded.\nOnly tests in which 3 or more females fed in the control cell were analyzed, as lower feeding rates are indicative of substandard feeding readiness of that group of mosquitoes.\n[…] Data were collected to record knockdown in 6 minutes, one hour and 24 hours post exposure."}, "[2]": {"tested_on": "bed bugs (Cimex lectularius)", "assay": "Bed bug mortality on treated filter paper", "format": "in vivo", "settings": "Cimex lectularius, 24 h", "method": "Knockdown data and mortality for volatile pyrethroids against bed bugs (Cimex lectularius): Compounds were dissolved in acetone to yield concentrations of 100 μg/cm^2, 10 μg/cm^2, and 1 μg/cm^2 and 47 mm filter paper disks were treated. Acetone-treated filter paper was used as a negative control. Mixed stages (nymphs and adults) of a laboratory colony of the bed bug Cimex lectularius were placed on the treated filter paper in glass Petri dishes and mortality was recorded 24 h later, at which time bed bugs were removed to untreated surfaces. 24 h after this transfer another assessment of mortality was made to see if any dead or moribund bugs had recovered."}, "Ae. aegypti mosquitoes": {"tested_on": "Ae. aegypti mosquitoes", "assay": "Sleeve bite protection assay on treated uniform fabric, mosquitoes", "format": "in vivo, Aedes aegypti (Orlando, 1952)", "method": "Biological Evaluation: Bite protection assays were conducted with laboratory-reared 7-12 day old mosquitoes or sand flies. The species used throughout these studies are Aedes aegypti (Orlando, 1952) and Phlebotomus papatasi sand flies (Jerusalem, 1983). Females were pre-selected using either a hand draw box or a mechanical aspirator. An assay was conducted by wearing sewn sleeves made from clothing material. Treated specimens were assayed with untreated controls to correct for the bite resistance afforded by material construction and composition. The untreated control was tested at the beginning of the experiment, followed by successively higher candidate repellent concentrations on sleeves. Sleeves were sewn from a cut out single ply trapezoidal pattern (33.2 cm×21 cm×25.5 cm height) of material. […] Permethrin was 35:65cis: trans, 95.85% technical material. Experimental repellents were received as neat samples with <5% impurities. The treatment occurred by dissolution of repellent in suitable quantity of acetone to saturate the clothing, but minimizing excess solution. Excess solution was quantified and this amount of excess was then used to calculate the estimated amount of repellent applied to the material. […] The photoperiod was 12:12. The mosquito cages were approximately 60000 cm^3 and each contained 175 to 225 female mosquitoes. […] Cages for sand fly work were slightly smaller (15000 cm^3) and constructed of acrylic for filming purposes and with screens on the exterior edges to allow air flow through the system. About 20-40 sand flies were released in cages for each assay. Assays started when the sleeved arm was inserted through the sleeve into the cage. Normally the hand was protected by a glove, but there were situations (i.e. sand fly data presented here) when the ability of a repellent to protect the untreated hand was determined. The assay periods were 15 min for the mosquitoes and 25-30 minutes for sand flies. The insects were allowed to land, probe and possibly bloodfeed during this time. At the conclusion of the experiment, all insects were knocked down or aspirated and the percentage that bloodfed of the total female test population in the cage was recorded. The protect level was calculated by Abbott's formula as a percentage reduction in bites compared to the untreated fabric control sleeve. Specific conditions for bioassays are noted with corresponding data contained in the Tables."}, "[3]": {"tested_on": "bed bugs (Cimex lectularius)", "assay": "Bed bug mortality on treated filter paper", "format": "in vivo", "settings": "24 h"}, "[4]": {"settings": "ACU sleeve, stored one year then tested, concentrations as E1"}}, "data": [{"smiles": "CC(C)=C[C@@H]1[C@@H](C(=O)OCc2c(F)c(F)cc(F)c2F)C1(C)C", "note": "[TL-I-107]", "values": [{"measurement": "Knockdown 6 min (%)", "setting": "[1]; 2.5 nM\\cm^2, K&D module", "value": 100, "unit": "%"}, {"measurement": "Knockdown 24 hours (%)", "setting": "[1]; 2.5 nM\\cm^2, K&D module", "value": 100, "unit": "%"}, {"measurement": "Not feeding 3 minutes (%)", "setting": "[1]; 2.5 nM\\cm^2, K&D module", "value": 100, "unit": "%"}, {"measurement": "Knockdown 1 hour (%)", "setting": "[1]; 2.5 nmol/cm^2, K&D module", "value": 100, "unit": "%"}, {"measurement": "Knockdown 6 min (%)", "setting": "[1]; 25 nM\\cm^2, K&D module", "value": 100, "unit": "%"}, {"measurement": "Knockdown 24 hours (%)", "setting": "[1]; 25 nM\\cm^2, K&D module", "value": 100, "unit": "%"}, {"measurement": "Not feeding 3 minutes (%)", "setting": "[1]; 25 nM\\cm^2, K&D module", "value": 100, "unit": "%"}, {"measurement": "Knockdown 1 hour (%)", "setting": "[1]; 25 nmol/cm^2, K&D module", "value": 100, "unit": "%"}, {"measurement": "mortality at 0.0025 µM", "setting": "[1]; Aedes aegypti, 24 h", "value": 100, "unit": "%"}, {"measurement": "mortality at 0.025 µM", "setting": "[1]; Aedes aegypti, 48 h", "value": 100, "unit": "%"}, {"measurement": "mortality at 1 µg/cm2", "setting": "[2]", "value": 0, "unit": "%"}, {"measurement": "mortality at 10 µg/cm2", "setting": "[2]", "value": 100, "unit": "%"}, {"measurement": "mortality at 100 µg/cm2", "setting": "[2]", "value": 100, "unit": "%"}, {"measurement": "Blood-fed #", "setting": "Ae. aegypti mosquitoes; ACU (50/50 NYCO) sleeve, glove on hand, 15 min, permethrin 0.118, transfluthrin 0.108, TL-I-107 0.107, TL-I-141 0.109, TL-I-105 0.107, TL-I-73 0.102 mg/cm^2", "value": "0 #"}, {"measurement": "Bite Protection (%)", "setting": "Ae. aegypti mosquitoes; ACU (50/50 NYCO) sleeve, glove on hand, Abbott's formula vs untreated sleeve, concentrations as E1", "value": 100, "unit": "%"}, {"measurement": "Fed (%)", "setting": "Ae. aegypti mosquitoes; ACU (50/50 NYCO) sleeve, glove on hand, concentrations as E1", "value": 0.0, "unit": "%"}, {"measurement": "Bite Protection (%)", "setting": "Ae. aegypti mosquitoes; [4]", "value": 100, "unit": "%"}, {"measurement": "Fed (%)", "setting": "Ae. aegypti mosquitoes; [4]", "value": 0.0, "unit": "%"}, {"measurement": "Blood-fed #", "setting": "Ae. aegypti mosquitoes; ACU sleeve, treated specimens stored in refrigerator for one year then tested, concentrations as E1", "value": "0 #"}, {"measurement": "mortality at 5 µg/cm2", "setting": "[3]", "value": 100, "unit": "%"}]}]}
